# Assay results as given in PMC9721424, “Novel N-methylsulfonyl-indole derivatives: biological activity and COX-2/5-LOX inhibitory effect with improved gastro protective profile and reduced cardio vascular risks” (Journal of Enzyme Inhibition and Medicinal Chemistry, 2022).
# Marks after values point to notes of the source that are not given here.
# Assays:
# [1] = test system: heart function biomarkers (LDH, CK-MB, and troponin); assay: Cardiac function biomarkers in rat serum; format: in vivo, rats; details: 50 mg/kg/day p.o. for 2 weeks, mean ± SEM
# Experimental: (§1) Eighteen rats were divided into three groups at random (6 animals in each group). The first group was given a vehicle and served as normal control. […] Ketamine (100 mg/kg) was used to anaesthetise the animals on the 15th day. Blood samples were obtained from the retro orbital, allowed to clot, centrifuged at 1000 g for 15 min, and utilised to examine heart function biomarkers (LDH, CK-MB, and troponin). The abdomen of each rat was opened, and the heart was extracted and washed in ice-cold physiological saline before being harnessed for histological investigation.
# [2] = test system: heart; assay: Histopathological examination of the heart; format: in vivo; details: rats, two weeks administration, H&E stain
# Experimental: as §1
# [3] = test system: stomach mucosa; assay: Ulcerogenic liability (ulcer index); format: in vivo; details: rats, 50 mg/kg dosage for three consecutive days, mean of 6 rats
# Experimental: In this study, adult male Wister albino rats weighing 160–180 g were used. Before any experimental procedure, rats were given 14 days to acclimate. These rats were maintained in a controlled setting with food and water available. All experiments were conducted in accordance with laboratory animal care guidelines. All experimental procedures were carried out in accordance with the regulations of the Committee of Ethics for Scientific Research on Living Organisms, Faculty of Pharmacy, Nahda University, Beni-Suef (NUB). The approval number was (NUB-019–025). […] Before drug administration, rats were fasted for 18 h and then separated into four groups. The control group received a suspension of the vehicle (10% DMSO in saline was given P.O (100 mg/kg) once daily). […] Rats were given the required dose for three consecutive days. Following the last dose, the stomachs of each rat were dissected and opened via the greater curvature and rinsed with saline. For investigation, the dissected stomach was stretched with pins on a cork board. Through illuminated magnifying lenses, the stomach mucosa was examined for the existence of ulcers. Cho and Ogle’s method[45]^,[46] was used to calculate the ulcer index.
# [4] = test system: stomach; assay: Histopathological examination of stomach; format: in vivo, rats; details: rat, in vivo
# Experimental: In brief, the stomachs of each animal group’s rat were fixed in 10% neutral buffered formalin for 48 h. The sections were then dehydrated, cleared, fixed in paraffin, sectioned ([…]), and stained with H&E stain.
# [5] = antimicrobial and antifungal activity; cited from earlier work
# [6] = test system: Gram-positive bacteria, Gram-negative bacteria, and yeast fungus; assay: Disc diffusion antimicrobial screening, whole panel; format: cell-based; details: all tested Gram-positive and Gram-negative bacteria, read-out: diameters of inhibition zones
# Experimental: All compounds were screened for their antimicrobial activity at the Microbiology and Immunology Department, Faculty of Pharmacy, Beni-Suef University. The antimicrobial activity screening was carried out using the disc diffusion method, as described earlier, with some adjustments.
# For each indicator microbe, a solution of half McFarland turbidity was prepared in sterile saline, followed by surface streaking of the strains on Mueller-Hinton agar with a sterile cotton swab. Then, sterile filter paper discs (5 mm diameter) preloaded with 100 µg of each compound were applied to the surface of the pre-inoculated plates. Then, the plates were chilled at 4 °C for 100 min before being incubated overnight at the proper temperature for microbial growth. Finally, the diameter of the inhibition zones around each disc was measured to evaluate the antimicrobial activity of the compounds. Ciprofloxacin was used as a standard antibacterial agent at a concentration of 20 µg/disc. Furthermore, DMSO-loaded discs were used as a negative control.
CK-MB [1],LDH [1],Troponin I [1],Structure (SMILES),heart histopathology finding [2],Ulcer index [3],Ulcer index ([3]; listed as celecoxib),stomach histopathology finding [4],MIC [5],zone of inhibition at 20 µg/disc [6]
0.635 ± 0.065^a ng/ml,690 ± 08^a U/L,0.1500 ± 0.0420^a ng/ml,"Cc1ccc(-c2cc(C(F)(F)F)nn2-c2ccc(S(N)(=O)=O)cc2)cc1 [Celecoxib, reference compound]",scattered inflamed cardiac muscle fibres with vacuolar degenerated myocytes,3.79^b,3.79,multiple complete ulcers and superficial mucosal erosions with disrupted mucous layer,–,–
–,–,–,O=C(O)c1cn(C2CC2)c2cc(N3CCNCC3)c(F)cc2c1=O [ciprofloxacin],–,–,–,–,< 3.90 µg/mL,34 to 48 mm
